In patent US20230138395A1, “PHARMACEUTICAL COMPOSITIONS OF A THERAPEUTIC POLYENE MACROLIDE AND METHODS OF THEIR USE” (priority 2020, published 2023):
Values after ≈ are worked out from the molar mass of the structure shown. Values joined by “and” are separate entries in the source; they are usually repeats but may differ in a detail not shown here. Equal entries are not always repeated. Where two headings read alike, the source gives them in different places.

Columns and labels:
[1] = tested on: Candida albicans ATCC 10231; assay: MIC50 growth inhibition assay of compositions (OD600), Example 12; assay type: cell-based; conditions: concentration giving 50% growth inhibition
Protocol: Efficacy of the compositions was determined using Minimum Inhibitory Concentration assays, and the concentration of active compound giving 50% growth inhibition of the indicator organism was reported (MIC50). The assay was performed in well plates with two (Müller-Hinton medium) or three parallel (M19-medium) cell cultures for each condition.
Cell Culture Medium: Müller-Hinton and M19 without NaCl.
Indicator Organism: Candida albicans ATCC 10231
Stock Solutions of the Active Compounds and Control: • Amphotericin B (USP): vacuum dried powder was dissolved in DMSO to 2.5 mg/mL giving a final concentration after inoculation of 2.5 μg/mL in the well with the highest concentration. • compound 1A (custom made): powder was dissolved in DMSO to 2.5 mg/mL giving a final concentration after inoculation of 2.5 μg/ml compound 1A in the well with the highest concentration. It is assumed that the batch is 70% pure. • Example 3 composition: the formulation was a suspension with 18 mg/mL nanoparticles. The suspension was diluted in a medium and C. albicans inoculum to a final concentration of 5 μg/mL of compound 1A and 130 μg/mL of […]. From this solution 10 dilutions were prepared giving 0.009 μg/ml compound 1A in the lowest concentration. • Empty poly(ethylbutyl cyanoacrylate) particles: empty poly(ethylbutyl cyanoacrylate) particles were used as a reference. The empty poly(ethylbutyl cyanoacrylate) was produced in the same manner as those in Examples 2 and 3, with the exception that they were prepared at pH 1, with vanillin concentration of 10% (w/w), and. The particles were diluted in the same manner as Example 3. The highest poly(ethylbutyl cyanoacrylate) concentration tested was 130 μg/mL.
Growth measurements were performed at OD600.

Candida albicans = assay: MFC determination; assay type: cell-based; conditions: for MFC Range: in µg/mL; for MFC50: kills 50% of strains; for MFC90: kills 90% of strains
C. krusei strains = assay: MIC testing (CLSI M27-A3); assay type: cell-based; conditions: for MIC Range: C. krusei strains, in µg/mL; for MIC50 / MIC90: C. krusei; for MIC50: inhibits 50% of strains; for MIC90: inhibits 90% of strains
C. parapsilosis = assay: MFC determination; assay type: cell-based; conditions: for MFC Range: C. parapsilosis strains, in µg/mL; for MFC50 / MFC90: C. parapsilosis; for MFC50: kills 50% of strains; for MFC90: kills 90% of strains
C. tropicalis = assay: MFC determination; assay type: cell-based; conditions: for MFC Range: C. tropicalis strains, in µg/mL; for MFC50 / MFC90: C. tropicalis; for MFC50: kills 50% of strains; for MFC90: kills 90% of strains
all Candida strains = assay: MIC testing (CLSI M27-A3), summary; assay type: cell-based; conditions: for MIC Range: in µg/mL; for MIC50: inhibits 50% of strains; for MIC90: inhibits 90% of strains
[2] = tested on: individual Aspergillus spp. (Table 12, species not named); assay: MFC determination, Table 12; assay type: cell-based; conditions: Aspergillus sp. of Table 12; for MFC50: kills 50% of strains; for MFC90: kills 90% of strains
[3] = tested on: individual Aspergillus spp. (Table 13, species not given); assay: MIC testing (CLSI M38-A2), Table 13; assay type: cell-based; conditions: Aspergillus sp. of Table 13, caspofungin read as MEC; for MIC Range: in µg/mL; for MIC50: inhibits 50% of strains; for MIC90: inhibits 90% of strains
[4] = tested on: individual Aspergillus spp. (Table 13, species not given); assay: MFC determination, Table 13; assay type: cell-based; conditions: Aspergillus sp. of Table 13; for MFC50: kills 50% of strains; for MFC90: kills 90% of strains
[5] = tested on: individual Aspergillus spp. (Table 15, species not named); assay: MIC testing (CLSI M38-A2), Table 15; assay type: cell-based; conditions: Aspergillus sp. of Table 15, caspofungin read as MEC; for MIC Range: in µg/mL; for MIC50: inhibits 50% of strains; for MIC90: inhibits 90% of strains
[6] = tested on: Fusarium strains (Table 18); assay: MIC testing (CLSI M38-A2), Table 18; assay type: cell-based, Fusarium spp.; conditions: for MIC50: inhibits 50% of strains; for MIC90: inhibits 90% of strains
Paecilomyces strains = assay: MFC determination; assay type: cell-based, Paecilomyces spp.; conditions: Paecilomyces strains (5)
[7] = tested on: Blastomyces dermatitidis, Coccidioides immitis, and Histoplasma capsulatum strains; assay type: cell-based; conditions: dimorphic fungal isolates; in µg/mL
A. fumigatus AF91 = assay: In vitro activity (MIC) against the infecting strain, Example 17; assay type: cell-based, Aspergillus fumigatus
Protocol: Minimum Inhibitory Concentration: MIC testing was performed according to the Clinical and Laboratory Standards Institute (CLSI) M27-A3 and M38-A2 standards for the susceptibility testing of yeasts and filamentous fungi, respectively (Cryptococcus isolates were incubated for 72 h). For yeast strains, the incubation temperature and time were 35° C. and 24-48 h, respectively, and the inoculum size was 0.5-2.5×10^3 CFU/ml. For filamentous strains, the inoculum size was 0.4-5×10^4 CFU/ml, and the incubation time was strain and drug specific. RPMI 1640 was the test medium throughout, with the exception of the use of YNB for Cryptococcus. Inhibition endpoints for compound 1A were recorded at 50% and 100% after both 24 h and 48 h incubation; caspofungin results against Aspergillus strains were read as minimum effective concentrations (MEC), the lowest concentration that leads to small, rounded, compact growth as compared to the confluent growth of the control.

[8] = Drug loading and stability by LC-DAD-QTOF / LC-UV; assay type: physicochemical; conditions: high concentrations of ascorbic acid
Protocol: The sizes and size distributions were measured using dynamic light scattering (Malvern Zetasizer and Nanoparticles Tracking Analyzer (NTA)) in phosphate buffer (pH 7). Dry weight was determined by drying three sample aliquots at 50° C. overnight. Drug loading and stability was determined weighing/pipetting three sample aliquots, dissolution in DMSO, and dilution for LC-DAD-QTOF analysis. The concentration of compound 1A was determined using three samples of amphotericin B USP as a standard. The LC-QTOF method was: • Mobile phases: 0.1% formic acid [A] and acetonitrile [B] • HPLC system: Agilent 1290 HPLC system with a 1290 DAD connected to a QTOF • Column: Polaris 3 C18, 150×2 mm, 3 μm (Varian) • Column thermostat: 30° C. • Flow rate: 0.3 ml/min • Injection volume: 2 μL • Wavelength: 385 nm for measuring compound 1A/AMB, Scan 190-600 nm • Software: MassHunter Qualitative analysis B.0.600 • Post time: 5 min • QTOF was operated in negative electrospray mode (ESI−) • The HPLC gradient is shown in Table 1.

[9] = Fluconazole-susceptible C. albicans n = 13

Row | SMILES | MFC Range (Candida albicans; [9]) | MFC50 (Candida albicans; [9]) | MFC90 (Candida albicans; [9]) | MIC Range (C. krusei strains) | MIC50 (C. krusei strains) | MIC90 (C. krusei strains) | MFC Range (C. parapsilosis) | MFC50 (C. parapsilosis) | MFC90 (C. parapsilosis) | MFC Range (C. tropicalis) | MFC50 (C. tropicalis) | MFC90 (C. tropicalis) | MIC Range (all Candida strains) | MIC50 (all Candida strains) | MIC90 (all Candida strains) | MFC50 [2] | MFC90 [2] | MIC Range [3] | MIC50 [3] | MIC90 [3] | other results
1 | C[C@@H]1[C@H](O)[C@@H](C)/C=C/C=C/C=C/C=C/C=C/C=C/C=C/[C@H](O[C@@H]2O[C@H](C)[C@@H](O)[C@H](N)[C@@H]2O)C[C@@H]2O[C@](O)(C[C@@H](O)C[C@@H](O)[C@H](O)CC[C@@H](O)C[C@@H](O)CC(=O)O[C@H]1C)C[C@H](O)[C@H]2C(=O)O [Amphotericin B] | 0.125-1 | 0.25 µg/mL (≈ 0.271 µM) | 1 µg/mL (≈ 1.08 µM) | 0.5-1 | 0.5 µg/mL (≈ 0.541 µM) | 1 µg/mL (≈ 1.08 µM) | 0.5-2 | 1 µg/mL (≈ 1.08 µM) | 1 µg/mL (≈ 1.08 µM) | 0.25-1 | 0.5 µg/mL (≈ 0.541 µM) | 1 µg/mL (≈ 1.08 µM) | 0.125-1 | 0.5 µg/mL (≈ 0.541 µM) | 0.5 µg/mL (≈ 0.541 µM) | 8 µg/mL (≈ 8.66 µM) | > 32 µg/mL | 1-2 | 1 µg/mL (≈ 1.08 µM) | 2 µg/mL (≈ 2.16 µM) | MIC50 ([1]; M19 medium): 0.34 µg/mL (≈ 0.368 µM); MIC50 ([1]; Müller-Hinton medium): 0.04 µg/mL (≈ 0.0433 µM); MFC Range (Candida albicans; Fluconazole-resistant C. albicans n = 7): 0.5-1; MFC50 [4]: > 8 µg/mL; MFC90 [4]: > 8 µg/mL; MIC Range [5]: 0.25-16; MIC50 [5]: 8 µg/mL (≈ 8.66 µM); MIC90 [5]: 8 µg/mL (≈ 8.66 µM); MIC50 [6]: 0.5 µg/mL (≈ 0.541 µM); MIC90 [6]: 2 µg/mL (≈ 2.16 µM); MFC Range (Paecilomyces strains): > 4 µg/mL; MIC Range [7]: <0.03-0.125; MIC (A. fumigatus AF91): 2 µg/mL (≈ 2.16 µM)
2 | C[C@@H]1[C@H](O)[C@@H](C)/C=C/C=C/C=C/C=C/C=C/C=C/C=C/[C@H](O[C@@H]2O[C@H](C)[C@@H](O)[C@H](N)[C@@H]2O)C[C@@H]2O[C@](O)(C[C@@H](O)[C@H](O)CC[C@@H](O)C[C@@H](O)C[C@@H](O)CC(=O)O[C@H]1C)C[C@H](O)[C@H]2C [Compound 1A] | 0.125-1 | 0.5 µg/mL (≈ 0.559 µM) | 1 µg/mL (≈ 1.12 µM) | 0.5-2 | 1 µg/mL (≈ 1.12 µM) | 2 µg/mL (≈ 2.24 µM) | 0.25-2 | 0.5 µg/mL (≈ 0.559 µM) | 2 µg/mL (≈ 2.24 µM) | 0.5-16 | 1 µg/mL (≈ 1.12 µM) | 8 µg/mL (≈ 8.95 µM) | 0.125-8 | 1 µg/mL (≈ 1.12 µM) | 2 µg/mL (≈ 2.24 µM) | 4 µg/mL (≈ 4.47 µM) | > 4 µg/mL | 1-2 | 1 µg/mL (≈ 1.12 µM) | 2 µg/mL (≈ 2.24 µM) | MIC50 ([1]; Candida albicans, ATCC10231, M19 medium, read-out: MIC50): 0.18 µg/mL (≈ 0.201 µM); MIC50 ([1]; Candida albicans, ATCC10231, Müller-Hinton medium, read-out: MIC50): 0.06 µg/mL (≈ 0.0671 µM); MFC (Candida albicans; individual C. albicans strain with elevated MICs to non-polyene comparators (Table 22)): 1 (5×) and >4 and 2; MIC (C. krusei strains; individual C. krusei strain with elevated MICs to non-polyene comparators (Table 22)): 0.5 µg/mL (≈ 0.559 µM); MFC (C. parapsilosis; individual C. parapsilosis strain with elevated MICs to non-polyene comparators (Table 22)): 0.5 (2×) and 1; MFC50 [4]: 2 µg/mL (≈ 2.24 µM); MFC90 [4]: > 4 µg/mL; MIC Range [5]: 0.5-4; MIC50 [5]: 2 µg/mL (≈ 2.24 µM); MIC90 [5]: 4 µg/mL (≈ 4.47 µM); MIC Range ([6]; in µg/mL): 1-4; MIC50 [6]: 2 µg/mL (≈ 2.24 µM); MIC90 [6]: 4 µg/mL (≈ 4.47 µM); MIC Range [7]: <0.03-0.25; MIC (A. fumigatus AF91; Aspergillus fumigatus, read-out: MIC): 2 µg/mL (≈ 2.24 µM); stability in solution [8]: chemically dehydrated
